The values below come from ChEMBL document CHEMBL1201862, “PubChem BioAssay data set” (2004).

Some test systems named below: SNB-75; KM12; BT-549; SNB-19; MCF7; ACHN; IGROV-1; MDA-MB-231; LOX IMVI; SF-268; UO-31; CAKI-1; RPMI-8226; U-251; Malme-3M; MDA-N; SK-MEL-28; HCC 2998; HL-60; NCI-H23.
Experiment in all cases: NCI tumour cell line growth inhibition, 48 h

Structures are written as SMILES.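 Dose response: 5 concentrations. Exposure: 48 h. Format: 96-well plates. Endpoint: linear interpolation; highest concentration if not reached. The concentration for 50% growth inhibition is given as GI50.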 Active and inactive are the calls of the source. No stated cut-off is given here; in the data, active = GI50 up to about 1.1 µM and inactive = higher.

Regarding `CCOC(=O)c1nc2ccccc2nc1Oc1ccc(C(=O)OC)cc1`, the GI50 in the assay with SNB-75 was 29 µM (inactive); in the assay with KM12, > 100 µM (inactive); with BT-549, > 100 µM (inactive); in the assay with SNB-19, > 100 µM (inactive); in the assay with MCF7 it was > 100 µM (inactive); in the assay on ACHN, > 100 µM (inactive). Besides, the GI50 with IGROV-1, in the assay with MDA-MB-231, in the assay with LOX IMVI, in the assay on SF-268, in the assay on UO-31 and in the assay with CAKI-1 was > 100 µM (inactive) throughout. For the same compound, the GI50 with RPMI-8226, in the assay on U-251, in the assay with Malme-3M, in the assay on MDA-N and with SK-MEL-28 was > 100 µM (inactive) each time.

With `O=C1CN(c2cccc(Cl)c2)C(=O)CN1NCNN1CC(=O)N(c2cccc(Cl)c2)CC1=O`, the GI50 with SNB-75 was 38.3 µM (inactive); in the assay on KM12, > 100 µM (inactive); in the assay on HCC 2998, > 100 µM (inactive); in the assay on BT-549, > 100 µM (inactive); in the assay with SNB-19, > 100 µM (inactive); in the assay with MCF7 it was > 100 µM (inactive). Moreover, the GI50 in the assay with HL-60, with ACHN, in the assay on IGROV-1, in the assay with SF-268, in the assay on UO-31 and with NCI-H23 was > 100 µM (inactive) in each case. Also, the GI50 in the assay on CAKI-1, with RPMI-8226, in the assay on U-251, in the assay on Malme-3M, with MDA-N and with SK-MEL-28 was > 100 µM (inactive) each time.

Turning to `COC(=O)[C@@H]1C=C[C@@H](C#N)n2c(=O)n(-c3ccccc3)c(=O)n21`, the GI50 in the assay with SNB-75 is 26.7 µM (inactive); in the assay on KM12, 28.8 µM (inactive); in the assay on HCC 2998, 33.3 µM (inactive); with BT-549, 34 µM (inactive); in the assay with SNB-19, > 100 µM (inactive); in the assay with MCF7, 19.5 µM (inactive). Besides, the GI50 was 38.5 µM (inactive) in the assay on ACHN; 32.6 µM (inactive) with IGROV-1; 19.7 µM (inactive) in the assay on MDA-MB-231; 10.6 µM (inactive) in the assay with LOX IMVI; 27.9 µM (inactive) with SF-268; 41.9 µM (inactive) with UO-31. The GI50 in the assay on NCI-H23 is 36.9 µM (inactive); in the assay on CAKI-1, 98.9 µM (inactive); in the assay with RPMI-8226, 31.8 µM (inactive); with U-251, 33.8 µM (inactive); with SK-MEL-28 it was 17 µM (inactive).

Take `CN(C)c1nncc2[nH]cnc12`: the GI50 in the assay on SNB-75 is > 100 µM (inactive); in the assay with KM12, 74.8 µM (inactive); in the assay on BT-549 it was > 100 µM (inactive); in the assay on SNB-19 it was > 100 µM (inactive); in the assay on MCF7, > 100 µM (inactive); in the assay on HL-60, > 100 µM (inactive). For the same compound, the GI50 in the assay with ACHN, in the assay on IGROV-1, in the assay with MDA-MB-231, with SF-268, in the assay with UO-31 and with NCI-H23 was > 100 µM (inactive) in each case. In addition, the GI50 in the assay on CAKI-1, with RPMI-8226, in the assay with U-251 and in the assay with SK-MEL-28 was > 100 µM (inactive) in each case.

As for `C[N+]12C=CC=C1C(N1CCCC1)c1scc(-c3ccc(F)cc3)c12` (configuration not stated), the GI50 is 20.4 µM (inactive) in the assay on SNB-75; 23.8 µM (inactive) with KM12; 4.89 µM (inactive) in the assay on BT-549; 15.1 µM (inactive) in the assay with SNB-19; 22 µM (inactive) in the assay with MCF7; 13.1 µM (inactive) with IGROV-1. Besides, the GI50 is 42.2 µM (inactive) in the assay on MDA-MB-231; 40.8 µM (inactive) with LOX IMVI; 32.4 µM (inactive) in the assay with SF-268; > 100 µM (inactive) in the assay on UO-31; > 100 µM (inactive) in the assay with CAKI-1; 10.4 µM (inactive) in the assay with RPMI-8226. Moreover, the GI50 with U-251 was 6.71 µM (inactive); in the assay on Malme-3M, 60.4 µM (inactive); in the assay on MDA-N, 17.1 µM (inactive); in the assay on SK-MEL-28, 66.5 µM (inactive).

As for `CCOc1c(OC)cc(C2c3cc4c(c(OCC)c3CC3COC(=O)C32)OCO4)cc1OC` (configuration not stated), the GI50 is 5.11 µM (inactive) in the assay with SNB-75; 0.962 µM (active) in the assay on KM12; 2.7 µM (inactive) in the assay with BT-549; 3.65 µM (inactive) in the assay on SNB-19; 0.574 µM (active) in the assay with MCF7; 1.79 µM (inactive) in the assay with ACHN. Also, the GI50 in the assay with IGROV-1 was 2.41 µM (inactive); in the assay on MDA-MB-231, 2.17 µM (inactive); in the assay with LOX IMVI it was 1.67 µM (inactive); with SF-268, 7.21 µM (inactive); in the assay on UO-31, 3.87 µM (inactive); in the assay on NCI-H23, 1.82 µM (inactive). For the same compound, the GI50 in the assay on CAKI-1 is 5.16 µM (inactive); in the assay on RPMI-8226, 3.75 µM (inactive); in the assay with U-251, 1.63 µM (inactive); with Malme-3M, 11.1 µM (inactive); in the assay with SK-MEL-28, 16.6 µM (inactive).

Regarding `C=C1C(=O)OC2/C=C(\CO)C3OC3C3OC3(C)CC(OC(=O)/C(=C/C)CO)C12` (configuration not stated), the GI50 is > 100 µM (inactive) with SNB-75; > 100 µM (inactive) in the assay with KM12; > 100 µM (inactive) in the assay with HCC 2998; 45.4 µM (inactive) with BT-549; > 100 µM (inactive) in the assay on SNB-19; 34.8 µM (inactive) with MCF7. Moreover, the GI50 in the assay on ACHN is 49.5 µM (inactive); in the assay with IGROV-1 it was > 100 µM (inactive); in the assay on MDA-MB-231, > 100 µM (inactive); with LOX IMVI it was 48.6 µM (inactive); with SF-268, 37.2 µM (inactive); in the assay on UO-31 it was > 100 µM (inactive). Also, the GI50 with NCI-H23 was 60.3 µM (inactive); in the assay with CAKI-1 it was 28.3 µM (inactive); in the assay on RPMI-8226 it was 17 µM (inactive); with U-251 it was 55.2 µM (inactive); with Malme-3M it was 25.5 µM (inactive); with MDA-N, 36.6 µM (inactive). Moreover, in the assay with SK-MEL-28, the GI50 is 42.1 µM (inactive).

Take `CCOc1ccc(/N=C/C=C(\Cl)c2ccc3ccccc3c2)cc1`: the GI50 in the assay on SNB-75 was 14.3 µM (inactive); in the assay on KM12 it was 16.3 µM (inactive); in the assay on HCC 2998 it was 0.022 µM (active); in the assay with BT-549, 20.2 µM (inactive); in the assay with SNB-19, 16.4 µM (inactive); with MCF7 it was 17.7 µM (inactive). The GI50 in the assay on HL-60 is 8.59 µM (inactive); in the assay on ACHN, 17.7 µM (inactive); with IGROV-1, 17.1 µM (inactive); in the assay on MDA-MB-231, 15.4 µM (inactive); in the assay with LOX IMVI, 6.58 µM (inactive); in the assay with SF-268, 17.9 µM (inactive). Further, the GI50 in the assay with UO-31 was 15.2 µM (inactive); in the assay with NCI-H23 it was 10.6 µM (inactive); in the assay with CAKI-1 it was 18.8 µM (inactive); in the assay on RPMI-8226, 6.65 µM (inactive); with U-251, 17.5 µM (inactive); with Malme-3M, 14.2 µM (inactive). Moreover, the GI50 with SK-MEL-28 is 11.8 µM (inactive).

Turning to `Nn1c(CCCCCCCCc2nnc(COc3ccc4ccccc4c3O)n2N)nnc1COc1ccc2ccccc2c1O`, the GI50 in the assay with SNB-75 was 51.1 µM (inactive); with KM12 it was 18.7 µM (inactive); in the assay with HCC 2998, 25.2 µM (inactive); with BT-549 it was 22.1 µM (inactive); in the assay with SNB-19, 30 µM (inactive); with MCF7 it was 27.2 µM (inactive). Also, the GI50 in the assay with ACHN was 31.3 µM (inactive); with IGROV-1 it was 4.92 µM (inactive); in the assay on MDA-MB-231 it was 23.2 µM (inactive); in the assay on SF-268, 29.8 µM (inactive); with UO-31 it was 28.4 µM (inactive); in the assay with NCI-H23 it was 16 µM (inactive). The GI50 in the assay on CAKI-1 was 18.2 µM (inactive); in the assay on RPMI-8226 it was 22.3 µM (inactive); in the assay on U-251 it was 41.4 µM (inactive); with Malme-3M, 4.48 µM (inactive); in the assay with SK-MEL-28 it was 32.4 µM (inactive).

For the compound `COc1cc2c(cc1OCCCN1C(=O)c3cccc4cccc(c34)C1=O)N=C[C@@H]1CCCN1C2=O`, the GI50 with KM12 was 16.3 µM (inactive); in the assay with HCC 2998, > 63.7 µM (inactive); with BT-549 it was 36.6 µM (inactive); in the assay with SNB-19, > 92 µM (inactive); in the assay on MCF7, 2.47 µM (inactive); in the assay with ACHN, 25.7 µM (inactive). Moreover, the GI50 in the assay on IGROV-1 was 12.2 µM (inactive); in the assay on MDA-MB-231, > 55.8 µM (inactive); with LOX IMVI, 33.9 µM (inactive); in the assay on SF-268, 39.6 µM (inactive); with UO-31, 22.5 µM (inactive); with NCI-H23, 34 µM (inactive). For the same compound, the GI50 with CAKI-1 is 25.4 µM (inactive); with RPMI-8226, 18.2 µM (inactive); in the assay with U-251, 39.5 µM (inactive); in the assay with Malme-3M, 19.5 µM (inactive); in the assay with MDA-N it was 37.2 µM (inactive); in the assay on SK-MEL-28, > 65.9 µM (inactive).

As for `COC(=O)[C@@]12OC[C@]34[C@H]([C@@H](O)[C@@H]1O)[C@@]1(C)CC(=O)C(O)=C(C)[C@@H]1C[C@H]3OC(=O)[C@H](OC(=O)/C=C(\C)C(C)C)[C@@H]24` [BRUCEANTIN], the GI50 is 0.02 µM (active) with SNB-75; 0.02 µM (active) in the assay with KM12; 0.02 µM (active) in the assay with BT-549; 0.02 µM (active) in the assay on SNB-19; 0.02 µM (active) in the assay with MCF7; 0.0026 µM (active) in the assay on ACHN. Also, the GI50 in the assay on IGROV-1 was 0.02 µM (active); in the assay on MDA-MB-231, 0.0384 µM (active); in the assay on LOX IMVI it was 0.02 µM (active); in the assay on SF-268 it was 0.0205 µM (active); in the assay with UO-31, 0.0598 µM (active); with NCI-H23 it was 0.02 µM (active). Also, the GI50 in the assay with CAKI-1 is 0.022 µM (active); in the assay on RPMI-8226 it was 0.02 µM (active); with U-251 it was 0.0242 µM (active); in the assay on Malme-3M, 0.02 µM (active); with MDA-N it was < 0.0101 µM (active); in the assay with SK-MEL-28 it was 0.02 µM (active).
